The values below come from US5723462A, “Certain fused pyrrolecarboxamides a new class of GABA brain receptor ligands” (Neurogen Corporation, priority 1996, dated 1998).

pKi: −log10 of the molar value.

By pKi is commonly meant the negative decadic logarithm of the Ki, by convention in mol/L. A low value points to a high Ki.

The first experiment concerns the target GABAa receptor. As to the kind of experiment: GABAa receptor binding assay ([3H]-Flumazenil, RO15-1788 displacement, rat cortical tissue). The conditions noted are these: 0.5 nM 3H-RO15-1788, 30 min at 4° C. The method, then:
The pharmaceutical utility of compounds of this invention are indicated by the following assay for GABAa receptor binding activity.
Assays are carried out as described in Thomas and Tallman (J. Bio. Chem. 156: 9838-9842, J. Neurosci. 3: 433-440, 1983). Rat cortical tissue is dissected and homogenized in 25 volumes (w/v) of 0.05M Tris HCl buffer (pH 7.4 at 4° C.). The tissue homogenate is centrifuged in the cold (4° ) at 20,000×g for 20'. The supernatant is decanted and the pellet is rehomogenized in the same volume of buffer and again centrifuged at 20,000×g. The supernatant is decanted and the pellet is frozen at -20° C. overnight. The pellet is then thawed and rehomogenized in 25 volume (original wt/vol) of buffer and the procedure is carried out twice. The pellet is finally resuspended in 50 volumes (w/vol of 0.05M Tris HCl buffer (pH 7.4 at […]).
Incubations contain […] of tissue homogenate, […] of radioligand 0.5 nM (^3 H-RO15-1788 [^3 H-Flumazenil] specific activity 80 Ci/mmol), drug or blocker and buffer to a total volume of […]. Incubations are carried for 30 min at 4° C. then are rapidly filtered through GFB filters to separate free and bound ligand. Filters are washed twice with fresh 0.05M Tris HCl buffer (pH 7.4 at 4° C.) and counted in a liquid scintillation counter. 1.0 mM diazepam is added to some tubes to determine nonspecific binding. Data are collected in triplicate determinations, averaged and % inhibition of total specific binding is calculated. Total Specific Binding=Total-Nonspecific. In some cases, the amounts of unlabeled drugs is varied and total displacement curves of binding are carried out. Data are converted to IC50 or Ki.
For `COc1ccc(NC(=O)c2c[nH]c3c2C(=O)CCC3)cn1` [Compound 1], the pKi was 7.96.

`O=C(Nc1ccsc1)c1c[nH]c2c1C(=O)CCC2` [Compound 2, N-(3-thienyl)-4-oxo-4,5,6,7-tetrahydro-1H-indole-3-carboxamide] gave a pKi of 8.52.

In turn, `COc1ccc2ccc(NC(=O)c3c[nH]c4c3C(=O)CCC4)nc2n1` [Compound 3, N-(2-methoxy-1,8-napthyridin-7-yl)-4-oxo-4,5,6,7-tetrahydro-1H-indole-3-carboxamide] gave a pKi of 7.18.

For `O=C(Nc1ccccn1)c1c[nH]c2c1C(=O)CCC2` [Compound 4, N-(2-Pyridyl)-4-oxo-4,5,6,7-tetrahydro-1H-indole-3-carboxamide], the pKi is 8.52.

Compound `O=C(Nc1nccs1)c1c[nH]c2c1C(=O)CCCC2` [Compound 5, N-(2-Thiazolyl)-4-oxo-1,4,5,6,7,8-hexahydro-cyclohepta[b]pyrrole-3-carboxamide] showed a pKi of 8.70.

In turn, `O=C(Nc1cccnc1)c1c[nH]c2c1C(=O)CCCC2` [Compound 6, N-(3-Pyridyl)-4-oxo-1,4,5,6,7,8-hexahydro-cyclohepta[b]pyrrole-3-carboxamide] gave a pKi of 7.60.

Compound `CC1(C)CCc2[nH]cc(C(=O)Nc3ccsc3)c2C1=O` [Compound 7, N-(3-Thienyl)-4-oxo-5,5-dimethyl-4,5,6,7-tetrahydro-1H-indole-3-carboxamide] showed a pKi of 7.82.

`CC1(C)CCc2[nH]cc(C(=O)Nc3nccs3)c2C1=O` [Compound 8, N-(2-Thiazolyl)-4-oxo-5,5-dimethyl-4,5,6,7-tetrahydro-1H-indole-3-carboxamide] showed a pKi of 8.70.

`Cc1cnc(NC(=O)c2c[nH]c3c2C(=O)CCC3)s1` [Compound 9, N-(5-Methyl-2-thiazolyl)-4-oxo-4,5,6,7-tetrahydro-1H-indole-3-carboxamide] had a pKi of 8.05.

Compound `O=C(Nc1ccc2ccc(Cl)nc2n1)c1c[nH]c2c1C(=O)CCC2` [Compound 10, N-(2-Chloro-1,8-napthyridin-7-yl)-4-oxo-4,5,6,7-tetrahydro-1H-indole-3-carboxamide] showed a pKi of 7.08. Compared with the last compound, the pKi is 0.97 log units lower.

The compound `Cc1cnc2nc(NC(=O)c3c[nH]c4c3C(=O)CCC4)ccc2c1` [Compound 11] had a pKi of 8.52. Compared with the last compound, the pKi is 1.44 log units higher.

In the case of `O=C(Nc1ccc2ccccc2n1)c1c[nH]c2c1C(=O)CCC2` [Compound 12, N-(2-Quinolinyl)-4-oxo-4,5,6,7-tetrahydro-1H-indole-3-carboxamide], the pKi is 7.30.

Compound `O=C(Nc1ccc2nccnc2c1)c1c[nH]c2c1C(=O)CCC2` [Compound 13, N-(6-Quinoxalinyl)-4-oxo-4,5,6,7-tetrahydro-1H-indole-3-carboxamide] showed a pKi of 7.19.

The next experiment has as its system GABA receptor.
Experiment: not given
To be noted: Tallman et al., 1978; cited from earlier work.
As for `CN1CCc2cc3c(cc2C1C1OC(=O)c2c1ccc1c2OCO1)OCO3` (single isomer, unassigned; (+)) [(+) bicuculline], the “blockade of the enhancement of benzodiazepine binding by GABA agonists” value is listed as “blocked”.

On to `CN1CCc2cc3c(cc2C1C1OC(=O)c2c1ccc1c2OCO1)OCO3` (single isomer, unassigned; (-)) [(-) bicuculline], for which the “blockade of the enhancement of benzodiazepine binding by GABA agonists” value is reported as “much less active”.
